Consider 1 compound from patent US9523100B2, “Pesticidal compositions and related methods” (DOW AGROSCIENCES LLC, priority 2013, dated 2016).

SMILES strings stand for the structures.

For test [1], the system named is Green Peach Aphid (GPA) (Myzus persicae) (MYZUPE). Description: Bioassay for Green Peach Aphid (GPA), foliar spray on cabbage seedlings. In kind it is in vivo. The following applies: 72 h, 200 ppm foliar spray on cabbage seedlings, graded after three days, Abbott corrected % control, read-out: GPA 200 ppm, % Control (or Mortality) rating. Summed up:
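Cabbage seedlings infested with 20-50 GPA (wingless adults and nymphs) one day before spraying to runoff with 200 ppm compound; four pots per treatment. Live aphids counted after three days at ~25° C; percent control by Abbott's correction against solvent-sprayed plants.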

Test [2] has as its system Sweetpotato Whitefly-Crawler (WF) (Bemisia tabaci) (BEMITA). Description: Insecticidal test for Sweetpotato Whitefly-Crawler (WF) in foliar spray assay on cotton plants. The format is in vivo. The following applies: 216 h, 200 ppm foliar spray on cotton plants, graded after 9 days, Abbott corrected % control, read-out: WF 200 ppm, % Control (or Mortality) rating. The essentials:
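Cotton plants carrying 200–400 whitefly eggs sprayed to run-off on both leaf surfaces at 200 ppm (acetone/0.025% Tween 20), four plants per treatment. After 9 days at about 25 °C, live 3rd–4th instar nymphs counted; Abbott-corrected percent control versus solvent check.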

`CCN(C(=O)CCC(=O)N(C)CC1CC1)c1cn(-c2cccnc2)nc1Cl` [Compound F30, N1-(3-Chloro-1-(pyridin-3-yl)-1H-pyrazol-4-yl)-N4-(cyclopropylmethyl)-N1-ethyl-N4-methylsuccinamide]: the mortality at 200 ppm in test [1] and in test [2] was 80 to 100% throughout.
